The text below walks through data of US5840684A, “Glycopeptide antibiotic derivatives” (Eli Lilly and Company, priority 1995, dated 1998).

In brackets after ≈: the same amount, converted by molar mass.

Assay [1] concerns Staphylococcus aureus S13E. Type of assay: cell-based. As for the experimental part: (§1) The MIC's were determined using a standard broth micro-dilution assay.
For assay [2], the system named is Staphylococcus aureus SA1199B. Type of assay: cell-based. As for the experimental part: as §1
The test system of assay [3] is Entercoccus faecium 180-1. As to the kind of experiment: broth micro-dilution MIC. Type of assay: cell-based. The method, then: as §1
Another assay relates to Entercoccus faecium 276. As to the kind of experiment: broth micro-dilution MIC. The assay is classed as cell-based. The method, then:
as §1

Assay [4] concerns Staphylococcus aureus 446. As to the kind of experiment: broth micro-dilution MIC. Type of assay: cell-based. As for the experimental part: as §1
The test system of assay [5] is Staphylococcus aureus 447. As to the kind of experiment: broth micro-dilution MIC. Type of assay: cell-based. As for the experimental part: as §1
The subject of assay [6] is Staphylococcus aureus 489. The assay can be described thus: broth micro-dilution MIC. Type of assay: cell-based. The method, then:
as §1

Assay [7] concerns Staphylococcus aureus SA1199A. The assay can be described thus: broth micro-dilution MIC. Type of assay: cell-based. The method, then: as §1
Assay [8] deals with Staphylococcus aureus SA1199. As to the kind of experiment: broth micro-dilution MIC. Type of assay: cell-based. As for the experimental part:
as §1

The subject of assay [9] is Staphylococcus aureus X400. As to the kind of experiment: broth micro-dilution MIC. Type of assay: cell-based. As for the experimental part:
as §1

The subject of assay [10] is Staphylococcus aureus X778. The assay can be described thus: broth micro-dilution MIC. The assay is classed as cell-based. As for the experimental part: as §1
The subject of assay [11] is Streptococcus pyogenes C203. As to the kind of experiment: broth micro-dilution MIC. Type of assay: cell-based. The method, then: as §1
The next assay has as its system Entercoccus faecium 180. As to the kind of experiment: broth micro-dilution MIC. The assay is classed as cell-based. Particulars: Entercoccus faecium 180. The method, then: (§2) The formula I compounds have in vitro and in vivo activity against Gram-positive pathogenic bacteria. The MIC's were determined using a standard broth micro-dilution assay.
Another assay deals with Entercoccus faecium 2041. The assay can be described thus: broth micro-dilution MIC. The assay is classed as cell-based. Particulars: Entercoccus faecium 2041. The method, then:
as §2

In assay [12] the test system is Enterococcus gallinarum 245. The assay can be described thus: broth micro-dilution MIC. Particulars: Enterococcus gallinarum 245. The assay is classed as cell-based. The method, then:
as §2

Assay [13] deals with Staphylococcus epidermidis 270. As to the kind of experiment: broth micro-dilution MIC. The assay is classed as cell-based. The method, then:
as §2

Assay [14] relates to Staphylococcus haemolyticus 105. As to the kind of experiment: broth micro-dilution MIC. The assay is classed as cell-based. The method, then: as §2
The test system of assay [15] is Staphylococcus haemolyticus 415. The assay can be described thus: broth micro-dilution MIC. Type of assay: cell-based. The method, then: as §2
Assay [16] relates to Streptococcus pneumoniae P1. As to the kind of experiment: broth micro-dilution MIC. The assay is classed as cell-based. As for the experimental part:
as §2

Another assay deals with Stapylococcus aureus. As to the kind of experiment: mouse protection, experimentally-induced infection. The settings on record: mice infected with Stapylococcus aureus, two doses. Type of assay: in vivo.
The subject of the next assay is Streptococcus pyogenes. The assay can be described thus: mouse protection, experimentally-induced infection. The assay is classed as in vivo. The settings on record: mice infected with Streptococcus pyogenes, two doses.
The subject of the next assay is Streptococcus pneumoniae. The assay can be described thus: mouse protection, experimentally-induced infection. Type of assay: in vivo. The settings on record: mice infected with Streptococcus pneumoniae, two doses.
The test system of assay [17] is vancomycin-resistant enterococci. As to the kind of experiment: broth micro-dilution, mean geometric MIC. The assay is classed as cell-based, Enterococcus faecium and Enterococcus faecalis. Particulars: enterococci, 24-hour incubation.
The subject of assay [18] is vancomycin-susceptible enterococci. As to the kind of experiment: broth micro-dilution, mean geometric MIC. Type of assay: cell-based, Enterococcus faecium and Enterococcus faecalis. The settings on record: enterococci, 24-hour incubation.
A further assay relates to Pediococcus acidilacti. The assay can be described thus: agar dilution MIC, lactic acid bacteria. Type of assay: cell-based. The settings on record: Pediococcus acidilacti (mean of 10), brain-heart infusion agar.
Assay [19] relates to Leuconostoc mesenteroides. As to the kind of experiment: agar dilution MIC, lactic acid bacteria. Type of assay: cell-based. Particulars: Leuconostoc mesenteroides (mean of 4), brain-heart infusion agar.
Another assay relates to Leuconostoc citreum. The assay can be described thus: agar dilution MIC, lactic acid bacteria. The settings on record: brain-heart infusion agar. The assay is classed as cell-based.
The subject of assay [20] is Leuconostoc pseudomesenteroides. The assay can be described thus: agar dilution MIC, lactic acid bacteria. Type of assay: cell-based. Particulars: brain-heart infusion agar.

`CNC(CC(C)C)C(=O)NC1C(=O)NC(CC(N)=O)C(=O)NC2C(=O)NC3C(=O)NC(C(=O)NC(C(=O)O)c4cc(O)cc(O)c4-c4cc3ccc4O)C(OC3CC(C)(N)C(O)C(C)O3)c3ccc(c(Cl)c3)Oc3cc2cc(c3OC2OC(CO)C(O)C(O)C2OC2CC(C)(NCc3ccc(OCc4ccccc4)c(OC)c3)C(O)C(C)O2)Oc2ccc(cc2Cl)C1O` (stereo not drawn) [Compound 52]: the minimum inhibitory concentration (MIC) is 0.5 µg/mL (≈ 0.275 µM) in assay [1]; 2 µg/mL (≈ 1.1 µM) in [2]; at most 0.06 µg/mL in assay [3]; 0.125 µg/mL (≈ 0.0687 µM) against Entercoccus faecium 276; at most 0.06 µg/mL in assay [4]; at most 0.06 µg/mL in assay [5]. The MIC in assay [6] is 0.5 µg/mL (≈ 0.275 µM); in assay [7], at most 0.06 µg/mL; in assay [8] it was 2 µg/mL (≈ 1.1 µM); in assay [9], at most 0.06 µg/mL; in assay [10] it was 0.5 µg/mL (≈ 0.275 µM); in assay [11] it was at most 0.06 µg/mL. In addition, the minimal inhibitory concentration (MIC) in the assay on Entercoccus faecium 180 amounted to 2 µg/mL (≈ 1.1 µM); against Entercoccus faecium 2041, 0.5 µg/mL (≈ 0.275 µM); in assay [12], 1 µg/mL (≈ 0.55 µM); in assay [13], 0.5 µg/mL (≈ 0.275 µM); in assay [14], 0.5 µg/mL (≈ 0.275 µM); in assay [15] it was 1 µg/mL (≈ 0.55 µM). The MIC was at most 0.06 µg/mL in assay [16], 55 µg/mL (≈ 30.2 µM) in the assay with Pediococcus acidilacti, 76 µg/mL (≈ 41.8 µM) in [19] and above 128 µg/mL in the assay on Leuconostoc citreum. Also, the values for the ED50 in the assay with Stapylococcus aureus, in the assay on Streptococcus pyogenes and in the assay with Streptococcus pneumoniae were 0.052 mg/kg/2, 0.046 mg/kg/2 and 0.074 mg/kg/2, respectively. Moreover, in [17], the “mean geometric MIC, Vancomycin Resistant Strains” value is 0.59 µg/mL. The “mean geometric MIC, Vancomycin Sensitive Strains” value in assay [18] came to 0.11 µg/mL.
Turning to `CNC(CC(C)C)C(=O)NC1C(=O)NC(CC(N)=O)C(=O)NC2C(=O)NC3C(=O)NC(C(=O)NC(C(=O)O)c4cc(O)cc(O)c4-c4cc3ccc4O)C(OC3CC(C)(N)C(O)C(C)O3)c3ccc(c(Cl)c3)Oc3cc2cc(c3OC2OC(CO)C(O)C(O)C2OC2CC(C)(NCc3cccc4c3OCO4)C(O)C(C)O2)Oc2ccc(cc2Cl)C1O` (stereo not drawn) [Compound 58], the MIC in [1] was at most 0.06 µg/mL; in the assay with Entercoccus faecium 276, 0.5 µg/mL (≈ 0.29 µM); in [5] it was 1 µg/mL (≈ 0.579 µM); in assay [6], at most 0.06 µg/mL; in assay [7] it was at most 0.06 µg/mL; in [8] it was at most 0.06 µg/mL. The MIC in assay [9] is at most 0.06 µg/mL; in assay [10], at most 0.06 µg/mL; in [11], at most 0.06 µg/mL; with Entercoccus faecium 180 it was 8 µg/mL (≈ 4.63 µM); in the assay with Entercoccus faecium 2041, 0.5 µg/mL (≈ 0.29 µM); in [12] it was 0.4 µg/mL (≈ 0.232 µM). Moreover, the MIC is 4 µg/mL (≈ 2.32 µM) in [13]; 4 µg/mL (≈ 2.32 µM) in assay [14]; 8 µg/mL (≈ 4.63 µM) in assay [15]; at most 0.06 µg/mL in assay [16]; 55 µg/mL (≈ 31.9 µM) with Pediococcus acidilacti; 128 µg/mL (≈ 74.1 µM) in assay [20]. For the same compound, the minimum inhibitory concentration (MIC) with Leuconostoc citreum stood at 128 µg/mL (≈ 74.1 µM). Besides, in assay [17], the “mean geometric MIC, Vancomycin Resistant Strains” value was found to be 5.7 µg/mL. Also, the “mean geometric MIC, Vancomycin Sensitive Strains” value in assay [18] is 0.76 µg/mL.
